According to patent US9440989B2, “Antifibrinolytic compounds” (PROYECTO DE BIOMEDICINA CIMA, S.L., priority 2012, dated 2016):
Where two headings read alike, the source gives them in different places. Each block holds one molecule with its values, some of them ahead of it.

System: human blood (whole blood clot lysis, tPA)
Assay: Thromboelastometry (ROTEM, modified in-tem with tPA): whole blood clot formation and lysis, human blood
Conditions: read-out: EC50LT (effective concentration to delay lysis time by 50%)
[1] = human blood, tPA, assayed concentrations 1000-0.2 μM

Protocol: A modification of in-tem test as described below was used for the examination of antifibrinolytic effects of tested compounds and its interaction with platelets in citrated blood.
In a pre-warmed cuvette and holder 1 μL of Tissue plasminogen activator (tPA) (150,000 U/mL, Actylise), 20 μL of start-tem reagent (CaCl2), 20 μL of in-tem reagent (activators of coagulation system), 3 μL of DMSO (control) or tested compounds (CMs) in DMSO and 300 μL of citrated blood pre-warmed were pipetted. The cup holder containing the sample mixture was placed immediately on the appropriate channel. The measurement was recorded for 60 min to allow clot formation and lysis.

SMILES: COC(=O)c1ccc(Oc2ccc(S(=O)(=O)C3(C(=O)NO)CCC4(CCNCC4)C3)cc2)cc1 (centres unmarked) [Example 1-06]
EC50 (Homo sapiens): > 25 µM

SMILES: COc1ccc(Sc2ccc(S(=O)(=O)C3(C(=O)NO)CCC4(CCNCC4)C3)cc2)cc1 (centres unmarked) [Example 1-15]
EC50 (Homo sapiens): > 25 µM

SMILES: CNC(=O)N1CCC2(CC1)CCC(C(=O)NO)(S(=O)(=O)c1ccc(Oc3ccc(OC)cc3)cc1)C2 (centres unmarked) [Example 1-33]
EC50 (Homo sapiens): > 25 µM

SMILES: COc1ccc(Oc2ccc(S(=O)(=O)C3(C(=O)NO)CCC4(CCN(c5ccccc5)CC4)C3)cc2)cc1 (centres unmarked) [Example 1-34]
EC50 (Homo sapiens): > 25 µM

SMILES: COc1ccc(Oc2ccc(S(=O)(=O)C3(C(=O)NO)CCC4(CCN(Cc5ccncc5)CC4)C3)cc2)cc1 (centres unmarked) [Example 1-37]
EC50 (Homo sapiens): > 25 µM

SMILES: COc1ccc(Oc2ccc(S(=O)(=O)C3(C(=O)NO)CCC4(CCN(Cc5cnc[nH]5)CC4)C3)cc2)cc1 (centres unmarked) [Example 1-39]
EC50 [1]: > 25 µM

SMILES: COc1ccc(-c2ccc(S(=O)(=O)C3(C(=O)NO)CCC4(CCNCC4)C3)cc2)cc1 (centres unmarked) [Example 1-41, N-hydroxy-3-(4-(4-methoxyphenyl)Phenylsulfonyl)-8-azaspiro[4.5]decane-3-carboxamide]
EC50 (Homo sapiens): > 25 µM

SMILES: O=C(NO)C1(S(=O)(=O)c2ccc(O)cc2)CCC2(CCNCC2)C1 (centres unmarked) [Example 1-60, N-hydroxy-3-(4-hydroxyphenylsulfonyl)-8-azaspiro[4.5]decane-3-carboxamide]
EC50 (Homo sapiens): > 25 µM

SMILES: Nc1ccc(S(=O)(=O)C2(C(=O)NO)CCC3(CCNCC3)C2)cc1 (centres unmarked) [Example 1-61]
EC50 (Homo sapiens): > 25 µM

SMILES: CN(C)C(=O)c1ccc(Oc2ccc(S(=O)(=O)C3(C(=O)NO)CCC4(CCNCC4)C3)cc2)cc1 (centres unmarked) [Example 1-63]
EC50 [1]: 1 to 10 µM

SMILES: NC(=O)c1ccc(Oc2ccc(S(=O)(=O)C3(C(=O)NO)CCC4(CCNCC4)C3)cc2)cc1 (centres unmarked) [Example 1-64]
EC50 (Homo sapiens): > 25 µM

SMILES: O=C(NO)C1(S(=O)(=O)c2ccc(Cc3ccccc3)cc2)CCC2(CCNCC2)C1 (centres unmarked) [Example 1-66]
EC50 (Homo sapiens): > 25 µM

SMILES: O=C(NO)C1(S(=O)(=O)c2ccc(Oc3ccc(Cl)cc3)cc2)CCC2(CCNCC2)C1 (centres unmarked) [Example 1-76]
EC50 (Homo sapiens): > 25 µM

SMILES: O=C(NO)C1(S(=O)(=O)c2cccc(NC3CCCCC3)c2)CCC2(CCNCC2)C1 (centres unmarked) [Example 1-78]
EC50 (Homo sapiens): > 25 µM

SMILES: CNC(=O)C1CCC(Nc2ccc(S(=O)(=O)C3(C(=O)NO)CCC4(CCNCC4)C3)cc2)CC1 (centres unmarked) [Example 1-83]
EC50 (Homo sapiens): > 25 µM

SMILES: CNC(=O)c1ccc(Oc2ccc(S(=O)(=O)C3(C(=O)NO)CCC4(CCNCC4)C3)cc2)cc1F (centres unmarked) [Example 1-89]
EC50 (Homo sapiens): > 25 µM

SMILES: COc1cc(S(=O)(=O)C2(C(=O)NO)CCC3(CCNCC3)C2)ccc1NC1CCCCC1 (centres unmarked) [Example 1-90, N-hydroxy-3-(3-methoxy-4-(cyclohexylamino)Phenylsulfonyl)-8-azaspiro[4.5]decane-3-carboxamide]
EC50 (Homo sapiens): > 25 µM

SMILES: CNC(=O)c1ccc(Oc2ccc(S(=O)(=O)C3(C(=O)NO)CCC4(CCNCC4)C3)cc2)c(F)c1 (centres unmarked) [Example 1-93]
EC50 (Homo sapiens): > 25 µM

SMILES: COC(=O)c1ccc(Oc2ccc(S(=O)(=O)C3(C(=O)NO)CCC4(CCNCC4)C3)cc2)c(F)c1 (centres unmarked) [Example 1-94]
EC50 (Homo sapiens): > 25 µM

SMILES: O=C(O)c1ccc(Oc2ccc(S(=O)(=O)C3(C(=O)NO)CCC4(CCNCC4)C3)cc2)c(F)c1 (centres unmarked) [Example 1-95]
EC50 (Homo sapiens): > 25 µM

Other lines, results leading:

EC50 (Homo sapiens): 10 to 25 µM
SMILES: CC(C)CCOc1ccc(S(=O)(=O)C2(C(=O)NO)CCC3(CCNCC3)C2)cc1 (centres unmarked) [Example 1-05]

EC50 (Homo sapiens): < 1 µM
SMILES: O=C(NO)C1(S(=O)(=O)c2ccc(OCCN3CCCCC3)cc2)CCC2(CCNCC2)C1 (centres unmarked) [Example 1-11, N-hydroxy-3-(4-[2-(piperidin-1-yl)ethoxy]phenylsulfonyl)-8-azaspiro[4.5]decane-3-carboxamide]

EC50 (Homo sapiens): < 1 µM
SMILES: CC(=O)Nc1ccc(Oc2ccc(S(=O)(=O)C3(C(=O)NO)CCC4(CCNCC4)C3)cc2)cc1 (centres unmarked) [Example 1-13]

EC50 (Homo sapiens): 1 to 10 µM
SMILES: COC1CCN(c2ccc(S(=O)(=O)C3(C(=O)NO)CCC4(CCNCC4)C3)cc2)CC1 (centres unmarked) [Example 1-16, N-hydroxy-3-[4-(4-methoxypiperidin-1-yl)phenylsulfonyl]-8-azaspiro[4.5]decane-3-carboxamide]

EC50 (Homo sapiens): 1 to 10 µM
SMILES: COc1ccc(S(=O)(=O)c2ccc(S(=O)(=O)C3(C(=O)NO)CCC4(CCNCC4)C3)cc2)cc1 (centres unmarked) [Example 1-17]

EC50 (Homo sapiens): 1 to 10 µM
SMILES: O=C(NO)C1(S(=O)(=O)c2ccc(OC3CCCCC3)cc2)CCC2(CCNCC2)C1 (centres unmarked) [Example 1-18]

EC50 (Homo sapiens): < 1 µM
SMILES: O=C(NO)C1(S(=O)(=O)c2ccc(Oc3ccc(C(F)(F)F)cc3)cc2)CCC2(CCNCC2)C1 (centres unmarked) [Example 1-21]

EC50 (Homo sapiens): 1 to 10 µM
SMILES: COc1ccc(Oc2ccc(S(=O)(=O)C3(C(=O)NO)CCC4(CCN(CC(C)=O)CC4)C3)cc2)cc1 (centres unmarked) [Example 1-28]

EC50 (Homo sapiens): 1 to 10 µM
SMILES: COc1ccc(Oc2ccc(S(=O)(=O)C3(C(=O)NO)CCC4(CCN(CC(=O)O)CC4)C3)cc2)cc1 (centres unmarked) [Example 1-29]

EC50 (Homo sapiens): < 1 µM
SMILES: CCCN1CCC2(CC1)CCC(C(=O)NO)(S(=O)(=O)c1ccc(Oc3ccc(OC)cc3)cc1)C2 (centres unmarked) [Example 1-31]

EC50 (Homo sapiens): 1 to 10 µM
SMILES: COc1ccc(Oc2ccc(S(=O)(=O)C3(C(=O)NO)CCC4(CCN(C5CC5)CC4)C3)cc2)cc1 (centres unmarked) [Example 1-32]

EC50 (Homo sapiens): 1 to 10 µM
SMILES: COc1ccc(Oc2ccc(S(=O)(=O)C3(C(=O)NO)CCC4(CCN(c5ccccn5)CC4)C3)cc2)cc1 (centres unmarked) [Example 1-35]

EC50 (Homo sapiens): 1 to 10 µM
SMILES: COc1ccc(Oc2ccc(S(=O)(=O)C3(C(=O)NO)CCC4(CCN(Cc5ccccc5)CC4)C3)cc2)cc1 (centres unmarked) [Example 1-36]

EC50 (Homo sapiens): < 1 µM
SMILES: COc1ccc(Oc2ccc(S(=O)(=O)C3(C(=O)NO)CC34CCNCC4)cc2)cc1 (centres unmarked) [Example 1-43]

EC50 (Homo sapiens): < 1 µM
SMILES: COc1ccc(Oc2ccc(S(=O)(=O)C3(C(=O)NO)CCC4(CCNCC4)C3)cc2Cl)cc1 (centres unmarked) [Example 1-56, N-hydroxy-3-(3-chloro-4-(4-methoxyphenoxyl)Phenylsulfonyl)-8-azaspiro[4.5]decane-3-carboxamide]

EC50 (Homo sapiens): 1 to 10 µM
SMILES: CC(C)NC(=O)c1ccc(Oc2ccc(S(=O)(=O)C3(C(=O)NO)CCC4(CCNCC4)C3)cc2)cc1 (centres unmarked) [Example 1-65]

EC50 (Homo sapiens): < 1 µM
SMILES: O=C(NO)C1(S(=O)(=O)c2ccc(NCc3ccccc3)cc2)CCC2(CCNCC2)C1 (centres unmarked) [Example 1-67]

EC50 (Homo sapiens): < 1 µM
SMILES: COC1CCC(Oc2ccc(S(=O)(=O)C3(C(=O)NO)CCC4(CCNCC4)C3)cc2)CC1 (centres unmarked) [Example 1-70]

EC50 (Homo sapiens): 1 to 10 µM
SMILES: CC(C)Oc1ccc(Oc2ccc(S(=O)(=O)C3(C(=O)NO)CCC4(CCNCC4)C3)cc2)cc1 (centres unmarked) [Example 1-72]

EC50 (Homo sapiens): 1 to 10 µM
SMILES: COC(=O)c1cccc(Oc2ccc(S(=O)(=O)C3(C(=O)NO)CCC4(CCNCC4)C3)cc2)c1 (centres unmarked) [Example 1-74]

EC50 (Homo sapiens): 1 to 10 µM
SMILES: O=C(O)c1cccc(Oc2ccc(S(=O)(=O)C3(C(=O)NO)CCC4(CCNCC4)C3)cc2)c1 (centres unmarked) [Example 1-75]

EC50 (Homo sapiens): 1 to 10 µM
SMILES: COC1CCC(Nc2ccc(S(=O)(=O)C3(C(=O)NO)CCC4(CCNCC4)C3)cc2)CC1 (centres unmarked) [Example 1-77]

EC50 (Homo sapiens): < 1 µM
SMILES: O=C(Nc1ccc(S(=O)(=O)C2(C(=O)NO)CCC3(CCNCC3)C2)cc1)C1CCCCC1 (centres unmarked) [Example 1-81, N-hydroxy-3-(4-(cyclohexanecarbonylamino)Phenylsulfonyl)-8-azaspiro[4.5]decane-3-carboxamide]

EC50 (Homo sapiens): < 1 µM
SMILES: O=C(O)C1CCC(Nc2ccc(S(=O)(=O)C3(C(=O)NO)CCC4(CCNCC4)C3)cc2)CC1 (centres unmarked) [Example 1-84]

EC50 (Homo sapiens): < 1 µM
SMILES: O=C(O)c1ccc(C(=O)Oc2ccc(S(=O)(=O)C3(C(=O)NO)CCC4(CCNCC4)C3)cc2)cc1 (centres unmarked) [Example 1-86]

EC50 (Homo sapiens): < 1 µM
SMILES: O=C(O)c1ccc(Oc2ccc(S(=O)(=O)C3(C(=O)NO)CCC4(CCNCC4)C3)cc2)cc1F (centres unmarked) [Example 1-88]

EC50 (Homo sapiens): 1 to 10 µM
SMILES: O=C(NO)C1(S(=O)(=O)c2ccc(OCC3CCCCC3)cc2)CCC2(CCNCC2)C1 (centres unmarked) [Example 1-92]
